Measured values as given in PubChem BioAssay AID1963963 (Molecular Pharmacology Branch, DTP, NCI, 2024).
Where “and” joins values, the source holds several entries; their conditions need not be identical. Equal values may be shown once. Values belong to the compound of their own block, whether it stands above or below them.

Tested on: 958667-338-R-J2-PDC tumor spheroids viability
Assay: Anticancer human tumor 958667-338-R-J2-PDC patient-derived colon adenocarcinoma cell line growth inhibition [PI3K]
Details: spheroids with HUVEC and MSC; for viability, T/C: stronger effect = lower value
Procedure, shortened: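 Stroma-containing spheroids: tumor line, pooled-donor HUVEC, hMSC. Treatments: targeted agents with PI3K inhibitors. Dosing: clinically relevant, half-log spacing, 10 microM ceiling without known Cmax. Read-out: cell viability.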

[1] = curve of first compound, second compound 0.0316 µM
[2] = curve of first compound, second compound 0.1 µM
[3] = curve of first compound, second compound 0.316 µM
[4] = curve of first compound, second compound 1 µM
[5] = second compound 0.0316 µM, first compound 0.0316 µM
[6] = second compound 0.0316 µM, first compound 0.1 µM
[7] = second compound 0.0316 µM, first compound 0.316 µM
[8] = second compound 0.0316 µM, first compound 1 µM
[9] = second compound 0.0316 µM, first compound 3.16 µM
[10] = second compound 0.0316 µM, first compound 10 µM
[11] = second compound 0.1 µM, first compound 0.0316 µM
[12] = second compound 0.1 µM, first compound 0.1 µM
[13] = second compound 0.1 µM, first compound 0.316 µM
[14] = second compound 0.1 µM, first compound 1 µM
[15] = second compound 0.1 µM, first compound 3.16 µM
[16] = second compound 0.1 µM, first compound 10 µM
[17] = second compound 0.316 µM, first compound 0.0316 µM
[18] = second compound 0.316 µM, first compound 0.1 µM
[19] = second compound 0.316 µM, first compound 0.316 µM
[20] = second compound 0.316 µM, first compound 1 µM
[21] = second compound 0.316 µM, first compound 3.16 µM
[22] = second compound 0.316 µM, first compound 10 µM
[23] = second compound 1 µM, first compound 0.0316 µM
[24] = second compound 1 µM, first compound 0.1 µM
[25] = second compound 1 µM, first compound 0.316 µM
[26] = second compound 1 µM, first compound 1 µM
[27] = second compound 1 µM, first compound 3.16 µM
[28] = second compound 1 µM, first compound 10 µM
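Further: spheroids exposed to compounds for seven days before readout.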

IC50 [1]: > 10 µM | IC50 [2]: > 10 µM | IC50 [3]: > 10 µM | IC50 [4]: > 10 µM | IC50 (curve of first compound, second compound 3.16 µM): > 10 µM | IC50 (curve of first compound, second compound 10 µM): > 10 µM
SMILES: CNC(=O)c1ccc(N2C(=S)N(c3ccc(C#N)c(C(F)(F)F)c3)C(=O)C2(C)C)cc1F + CC(Nc1ncnc2nc[nH]c12)c1cc2cccc(Cl)c2c(=O)n1-c1ccccc1
viability, T/C [5]: 103% | viability, T/C [6]: 94.7% | viability, T/C [7]: 105% | viability, T/C [8]: 101% | viability, T/C [9]: 113% | viability, T/C [10]: 99.2% | viability, T/C [11]: 119% | viability, T/C [12]: 98.7% | viability, T/C [13]: 87.1% | viability, T/C [14]: 83.5% | viability, T/C [15]: 114% | viability, T/C [16]: 87% | viability, T/C [17]: 103% | viability, T/C [18]: 88.3% | viability, T/C [19]: 101% | viability, T/C [20]: 107% | viability, T/C [21]: 121% | viability, T/C [22]: 107% | viability, T/C [23]: 96.7% | viability, T/C [24]: 91.3% | viability, T/C [25]: 102% | viability, T/C [26]: 96.4% | viability, T/C [27]: 104% | viability, T/C [28]: 94% | viability, T/C (second compound 3.16 µM, first compound 0.0316 µM): 91.8% | viability, T/C (second compound 3.16 µM, first compound 0.1 µM): 86.3% | viability, T/C (second compound 3.16 µM, first compound 0.316 µM): 72.7% | viability, T/C (second compound 3.16 µM, first compound 1 µM): 101% | viability, T/C (second compound 3.16 µM, first compound 3.16 µM): 119% | viability, T/C (second compound 3.16 µM, first compound 10 µM): 84.2% | viability, T/C (second compound 10 µM, first compound 0.0316 µM): 103% | viability, T/C (second compound 10 µM, first compound 0.1 µM): 96.5% | viability, T/C (second compound 10 µM, first compound 0.316 µM): 101% | viability, T/C (second compound 10 µM, first compound 1 µM): 87.9% | viability, T/C (second compound 10 µM, first compound 3.16 µM): 115% | viability, T/C (second compound 10 µM, first compound 10 µM): 74.8%

IC50 (curve of first compound, second compound 0.00316 µM): > 10 µM | IC50 (curve of first compound, second compound 0.01 µM): > 10 µM | IC50 [1]: > 10 µM | IC50 [2]: 4.27 µM | IC50 [3]: < 0.0316 µM | IC50 [4]: < 0.0316 µM
SMILES: CNC(=O)c1ccc(N2C(=S)N(c3ccc(C#N)c(C(F)(F)F)c3)C(=O)C2(C)C)cc1F + COc1c(OCCCN2CCOCC2)ccc2c3n(c(=NC(=O)c4cnc(N)nc4)nc12)CCN3
viability, T/C (second compound 0.00316 µM, first compound 0.0316 µM): 95.2% | viability, T/C (second compound 0.00316 µM, first compound 0.1 µM): 97.8% | viability, T/C (second compound 0.00316 µM, first compound 0.316 µM): 91.4% | viability, T/C (second compound 0.00316 µM, first compound 1 µM): 96.5% | viability, T/C (second compound 0.00316 µM, first compound 3.16 µM): 109% | viability, T/C (second compound 0.00316 µM, first compound 10 µM): 82.1% | viability, T/C (second compound 0.01 µM, first compound 0.0316 µM): 81.9% | viability, T/C (second compound 0.01 µM, first compound 0.1 µM): 88.9% | viability, T/C (second compound 0.01 µM, first compound 0.316 µM): 90.1% | viability, T/C (second compound 0.01 µM, first compound 1 µM): 82.7% | viability, T/C (second compound 0.01 µM, first compound 3.16 µM): 105% | viability, T/C (second compound 0.01 µM, first compound 10 µM): 92% | viability, T/C [5]: 68.5% | viability, T/C [6]: 74.7% | viability, T/C [7]: 74.7% | viability, T/C [8]: 68.2% | viability, T/C [9]: 92.7% | viability, T/C [10]: 67.8% | viability, T/C [11]: 54.9% | viability, T/C [12]: 61.4% | viability, T/C [13]: 56.2% | viability, T/C [14]: 59.7% | viability, T/C [15]: 50.5% | viability, T/C [16]: 42.8% | viability, T/C [17]: 40.9% | viability, T/C [18]: 47.6% | viability, T/C [19]: 38.8% | viability, T/C [20]: 33.2% | viability, T/C [21]: 31.5% | viability, T/C [22]: 22.7% | viability, T/C [23]: 19.5% | viability, T/C [24]: 20.9% | viability, T/C [25]: 17.4% | viability, T/C [26]: 18.3% | viability, T/C [27]: 16% | viability, T/C [28]: 9.91%

IC50 (curve of compound): > 10 µM
SMILES: CC(C)NCC(C(=O)N1CCN(c2ncnc3c2C(C)CC3O)CC1)c1ccc(Cl)cc1 (stereo unspecified)
viability, T/C (compound 0.0316 µM): 99.2% and 102% and 101% | viability, T/C (compound 0.1 µM): 92.6% and 114% and 87.9% | viability, T/C (compound 0.316 µM): 101% and 113% and 108% | viability, T/C (compound 1 µM): 78.6% and 73.4% and 101% | viability, T/C (compound 3.16 µM): 78.8% and 72.3% and 119% | viability, T/C (compound 10 µM): 72.2% and 69.7% and 80.9%

IC50 (curve of compound): > 10 µM
SMILES: Cn1nccc1Nc1nccc(-c2ccn(C(CO)c3ccc(Cl)c(F)c3)c(=O)c2)n1 (stereo unspecified)
viability, T/C (compound 0.0316 µM): 102% [middle of 4 runs] | viability, T/C (compound 0.316 µM): 95.4% [middle of 4 runs] | viability, T/C (compound 1 µM): 86.6% [middle of 4 runs] | viability, T/C (compound 3.16 µM): 89.5% [middle of 4 runs]
